Values joined by “and” are separate entries in the source; they are usually repeats but may differ in a detail not shown here. Identical values can stand only once.
What was measured:
[1] = system: herpes-simplex virus 2; details: ref xxi; cited from earlier work
[2] = system: bacteriophage φ6; details: ref xxi; cited from earlier work
[3] = system: simian immunodeficiency virus (SIV); details: ref xxii; cited from earlier work
[4] = Critical micelle concentration by tensiometer measurements in water; type: physicochemical; details: for CMC: in water, triplicate single values

Row | CMC [4] | Compound | other results
1 | – | 1-O-lauryl-glycerol [GML] | activity against herpes-simplex virus 2 [1]: low micromolar activity; activity against bacteriophage φ6 [2]: low micromolar activity; prevention of SIV in rhesus macaque model [3]: prevent simian immunodeficiency virus (SIV)
2 | 13.5 µM and 13.7 µM | CCCCCCCCCCCCCCCC(=O)OC[C@H]1O[C@H](OC)[C@@H](O)[C@@H](O)[C@@H]1O [Compound 7, Methyl-6-O-palmitate-α-D-mannopyranoside] | –
3 | 10.5 µM and 12 µM | CCCCCCCCCCCCCCCC(=O)OC[C@H]1O[C@H](O[C@@H]2O[C@H](CO)[C@@H](O)[C@H](O)[C@H]2O)[C@@H](O)[C@@H](O)[C@@H]1O [Compound 6, β-D-Glucopyranosyl-(1→1)-6-O-palmitate-α-D-mannopyranoside] | –
4 | 12.5 µM | CCCCCCCCCCCCCCCC(=O)O[C@@H]1[C@H](O)[C@@H](O[C@@H]2O[C@H](CO)[C@H](O)[C@H](O)[C@H]2O)O[C@H](CO)[C@H]1O [Compound 4, β-D-Galactopyranosyl-(1→1)-3-O-palmitate-α-D-mannopyranoside] | –
5 | – | CCCCCCCCCCCCCCCC(=O)OC[C@H]1O[C@H](OC)[C@@H](O)[C@@H](O)[C@@H]1OC(=O)CCCCCCCCCCCCCCC [Compound 8, Methyl-4,6-di-O-palmitate-α-D-mannopyranoside] | concentration above which precipitates rather than micelles form in water ([4]; interpretation of surface tension data): > 500 nM
6 | 10.5 µM | CCCCCCCCCCCCCCCC(=O)OC[C@H]1O[C@H](O[C@@H]2O[C@H](CO)[C@H](O)[C@H](O)[C@H]2O)[C@@H](O)[C@@H](O)[C@@H]1O [Compound 3, β-D-Galactopyranosyl-(1→1)-6-O-palmitate-α-D-mannopyranoside] | –

Source: paper PMC3380439 (Bioorganic & medicinal chemistry, 2011)
